This note sets out measurements from patent US4495358A, “Antibiotic pyrrolomycin E” (Meiji Seika Kaisha, Ltd., priority 1981, dated 1985).

Molecules are shown by their SMILES. ≈ marks a conversion by molar mass, not a printed value.

Data set [1] deals with mice. To be noted: mouse, in vivo, ip, 10 mg/kg.
Data set [2] concerns Klebsiella pneumoniae PCI-602. As to the kind of experiment: Minimum inhibitory concentration, agar dilution method. It is filed as cell-based. As to conditions: PCI602. The text has this:
(§1) The physical and chemical properties and the minimum inhibitory concentration against various microorganisms as measured by agar dilution method of pyrrolomycin E as obtained by the above-described method are as follows: […]
(In agar dilution, organisms are placed on agar that contains the substance at set levels.)

For data set [3], the system named is Proteus vulgaris OX-19. Described as above. To be noted: OX19. It is filed as cell-based.
Source text: as §1

Data set [4] relates to Escherichia coli W 3630 RGN823. The data set is described as above. To be noted: W3630RGN823, read-out: Minimum Inhibitory Concentration. It is filed as cell-based.
Source text: as §1

The test system of data set [5] is Staphylococcus epidermidis ATCC 14990. The description is as above. It is filed as cell-based. As to conditions: ATCC14990.
Source text: as §1

Data set [6] deals with Serratia marcescens No. 1. Described as above. It is filed as cell-based.
Source text: as §1

The test system of data set [7] is Staphylococcus aureus FDA209PJC-1. The data set is described as above. It is filed as cell-based. As to conditions: FDA209PJC1.
Source text: as §1

The subject of data set [8] is Pseudomonas aeruginosa IAM 1007. The data set is described as above. It is filed as cell-based. As to conditions: IAM1007.
Source text: as §1

Data set [9] concerns Bacillus subtilis ATCC 6633. The data set is described as above. It is filed as cell-based. To be noted: ATCC6633.
Source text: as §1

The subject of data set [10] is Salmonella typhi 0-901-W. The data set is described as above. To be noted: Salmonella enterica, read-out: Minimum Inhibitory Concentration. It is filed as cell-based.
Source text: as §1

Data set [11] concerns Escherichia coli NIHJ JC-2. The data set is described as above. It is filed as cell-based. As to conditions: NIHJJC2.
Source text: as §1

For data set [12], the system named is Staphylococcus aureus Smith. Described as above. It is filed as cell-based.
Source text: as §1

The nature of data set [13]: Nature of the substance (acidity). It is filed as physicochemical.
A short description of data set [14]: Solubility. It is filed as physicochemical.

In the case of `O=[N+]([O-])c1cc(Cl)[nH]c1-c1cc(Cl)cc(Cl)c1O` [pyrrolomycin E], the “acute toxicity (survival)” value in data set [1] was “All mice survived”. Also, the MIC in data set [2] is over 100 mg/L; in data set [3], 6.25 mg/L (≈ 20.3 µM); in data set [4], 12.5 mg/L (≈ 40.6 µM); in data set [5], 1.56 mg/L (≈ 5.07 µM); in [6] it was over 100 mg/L; in data set [7], 1.56 mg/L (≈ 5.07 µM). In addition, the MIC is over 100 mg/L in data set [8]; 0.025 mg/L (≈ 0.0813 µM) in data set [9]; over 100 mg/L in data set [10]; over 100 mg/L in data set [11]; 1.56 mg/L (≈ 5.07 µM) in [12]. Further, the “acidity of the substance” value in data set [13] is “Weak acidic substance”. In addition, the Solubility result is “Soluble” in data set [14] (acetone); “Soluble” in [14] (ethyl acetate); “Soluble” in data set [14] (methanol); “sparingly soluble” in data set [14] (n-hexane); “sparingly soluble” in data set [14] (water).
